Measurements reported in article PMC5605198, “MELK is not necessary for the proliferation of basal-like breast cancer cells” (eLife, 2017).
Where two headings read alike, the source gives them in different places.

Tests used:
CDK7 = CDK7 (Homo sapiens, UniProt P50613); assay: Adapta kinase assay; conditions: Adapta assay at [ATP]=apparent Km; read-out: Biochemical IC50 CDK7
ERK1/2 = assay: Cellular kinase engagement assay (KiNativ), ATP-biotin probe pull-down; format: cell-based; conditions: MDA-MB-468 cells, with MG132, 1 hour
Description: (§1) After confirming HTH-01-091 as a potent MELK inhibitor in biochemical assays, we next investigated whether HTH-01-091 engages MELK in cells. We performed a KiNativ assay to measure HTH-01-091 engagement with the ATP binding pocket of MELK, which would prevent active-site labeling from a lysine-reactive ATP-biotin probe ([Patricelli et al., 2007]). […] As a control, ERK1/2 pull-down was not affected by HTH-01-091 treatment, consistent with our profiling data showing no binding affinity of HTH-01-091 to ERK1/2 (Figure 2A, Figure 1—source data 1).
(§2) Figure 2. […] (A) Immunoblots analyzing the pull-down levels of MELK and ERK1/2 by ATP-biotin probes and streptavidin beads from MDA-MB-468 cells treated with different doses of HTH-01-091 and […] MG132 for 1 hour. […] See also Figure 2—figure supplement 1 for rescue experiments using carfilzomib and MLN4924. (C) 3-day antiproliferation assays of HTH-01-091 and other MELK inhibitors tested in MDA-MB-468 (basal) and ZR-75-1 (luminal) cells. Values represent two independent experimental mean ±SD. Error bars shorter than the height of the symbol are not drawn. […] Figure 2—figure supplement 1. […]
(§3) MDA-MB-468 cells on 10 cm plates were treated with HTH-01-091 at indicated concentrations and MG132 (10 μM) for an hour. […] The beads were boiled at 95°C for 10 min and analyzed by immunoblotting.

MELK [1] = biological target: T1, MELK (Homo sapiens, UniProt Q14680); assay: as above; format: cell-based; conditions: MDA-MB-468 cells, different doses, with MG132, 1 hour
T1 sequence (Q14680 whole entry): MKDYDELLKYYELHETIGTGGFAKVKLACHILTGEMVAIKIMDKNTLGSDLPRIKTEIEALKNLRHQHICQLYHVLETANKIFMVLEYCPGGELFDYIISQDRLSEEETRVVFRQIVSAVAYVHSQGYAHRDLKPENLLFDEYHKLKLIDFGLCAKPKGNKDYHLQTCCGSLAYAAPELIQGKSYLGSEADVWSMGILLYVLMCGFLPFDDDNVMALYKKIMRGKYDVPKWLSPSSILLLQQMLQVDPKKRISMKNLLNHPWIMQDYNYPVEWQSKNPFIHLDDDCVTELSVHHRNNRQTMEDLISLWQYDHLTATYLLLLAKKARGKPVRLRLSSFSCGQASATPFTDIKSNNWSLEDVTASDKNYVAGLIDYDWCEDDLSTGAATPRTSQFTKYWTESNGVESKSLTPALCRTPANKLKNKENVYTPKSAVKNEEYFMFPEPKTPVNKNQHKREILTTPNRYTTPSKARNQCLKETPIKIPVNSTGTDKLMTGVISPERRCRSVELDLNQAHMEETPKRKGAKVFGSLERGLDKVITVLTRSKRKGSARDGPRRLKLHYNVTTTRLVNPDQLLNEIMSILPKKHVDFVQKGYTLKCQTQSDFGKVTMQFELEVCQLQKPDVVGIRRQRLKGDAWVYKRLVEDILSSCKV
Description: as §1, §2, §3

MLK3 = MLK3 (Homo sapiens, UniProt Q16584); assay: ICKP radiometric kinase assay; format: biochemical; conditions: read-out: % AR (% kinase activity remaining)
MLK3, sequence (Q16584 whole entry): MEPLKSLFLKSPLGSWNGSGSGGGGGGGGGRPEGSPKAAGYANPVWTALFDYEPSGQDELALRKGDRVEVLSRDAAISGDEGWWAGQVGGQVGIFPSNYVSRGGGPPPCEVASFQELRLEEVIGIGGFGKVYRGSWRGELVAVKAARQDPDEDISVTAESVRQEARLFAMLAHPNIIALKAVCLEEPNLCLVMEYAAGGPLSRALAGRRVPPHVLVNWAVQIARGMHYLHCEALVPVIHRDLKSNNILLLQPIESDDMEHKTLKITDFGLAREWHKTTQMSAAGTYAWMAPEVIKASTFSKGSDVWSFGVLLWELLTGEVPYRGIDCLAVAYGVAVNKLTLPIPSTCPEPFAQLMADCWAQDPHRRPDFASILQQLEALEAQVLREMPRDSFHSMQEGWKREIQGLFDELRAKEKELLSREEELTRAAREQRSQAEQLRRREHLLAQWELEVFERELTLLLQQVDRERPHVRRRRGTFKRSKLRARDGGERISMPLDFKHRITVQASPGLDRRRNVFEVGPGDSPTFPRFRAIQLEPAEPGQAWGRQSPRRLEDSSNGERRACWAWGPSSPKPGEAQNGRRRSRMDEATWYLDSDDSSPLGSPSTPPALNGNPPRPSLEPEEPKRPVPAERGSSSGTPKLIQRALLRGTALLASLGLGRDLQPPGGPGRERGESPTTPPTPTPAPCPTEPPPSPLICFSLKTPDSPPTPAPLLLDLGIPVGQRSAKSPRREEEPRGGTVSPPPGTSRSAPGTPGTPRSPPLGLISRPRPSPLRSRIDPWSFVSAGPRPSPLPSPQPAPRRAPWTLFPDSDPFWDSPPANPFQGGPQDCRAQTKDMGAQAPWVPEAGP

MELK [2] = biological target: T1, MELK; assay: Z’-LYTE enzymatic assay; format: biochemical
141 kinases = assay: ICKP panel radiometric kinase profiling (summary); format: biochemical; conditions: radioactive filter-binding assay; kinases inhibited more strongly than MELK in the ICKP panel; read-out: IC50 values of potential off-target kinases
[3] = test system: select off-target kinases; assay: Off-target kinase inhibition (Z’-LYTE/Adapta), comparison; format: biochemical; conditions: from Table 1 IC50 values
AMPK = assay: ICKP radiometric kinase assay; conditions: 1 μM
MELK [4] = biological target: T1, MELK; conditions: ref Chung et al., 2012; cited from earlier work
[5] = test system: WT and MELK−/− MDA-MB-468 cells; assay: 3-day proliferation assays comparing WT and MELK−/− cells; format: cell-based; conditions: clone E9 vs clone C7
Description: We compared a WT clone (clone E9) and a MELK−/− clone (clone C7) with the parental cell line, and observed no significant difference in growth rate or cell cycle distribution (Figure 3A,B,C).
Figure 3. WT and MELK−/− MDA-MB-468 cells have similar growth rates, cell cycle distribution, and sensitivity to MELK inhibitors. (A) Immunoblots for MELK and GAPDH in WT (clone E9) and MELK−/− (clone C7) clones isolated from MDA-MB-468 cells transfected with sgMELK-3 and Cas9. See also Figure 3—figure supplements 1 and 2, and Figure 3—source data 1 for the details of the generation of MELK−/− clones. (B) 5-day proliferation curves comparing the growth rates of parental, WT, and MELK−/− MDA-MB-468 cells. Values represent two independent experimental mean ±SD. (C) Cell cycle analysis comparing WT and MELK−/− MDA-MB-468 cells. Values represent triplicate mean ±SD. […] Values represent duplicate mean ±SD. Error bars shorter than the height of the symbol are not drawn. Figure 3—source data 1. Genotype analysis of single cell clones selected from MDA-MB-468 cells transfected with Cas9/sgMELK-3. Figure 3—figure supplement 1. CRISPR/Cas9-mediated knockout of MELK in MDA-MB-468 cells. (A) Tracking of Indels by Decomposition (TIDE) analysis ([Brinkman et al., 2014]) of MDA-MB-468 cells transfected with Cas9/sgMELK-3 and enriched by the transfection marker OFP. […]

CDK7, sequence (P50613 whole entry): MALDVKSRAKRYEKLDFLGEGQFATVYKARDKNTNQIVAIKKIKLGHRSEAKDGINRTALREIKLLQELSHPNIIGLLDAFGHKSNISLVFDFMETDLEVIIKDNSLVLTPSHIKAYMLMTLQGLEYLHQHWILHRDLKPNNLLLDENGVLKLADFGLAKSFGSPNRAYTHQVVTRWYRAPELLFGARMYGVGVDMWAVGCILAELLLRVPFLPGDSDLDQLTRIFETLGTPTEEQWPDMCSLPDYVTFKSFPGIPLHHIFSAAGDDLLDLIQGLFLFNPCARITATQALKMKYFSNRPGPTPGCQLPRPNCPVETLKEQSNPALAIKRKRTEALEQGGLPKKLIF
CDK7, sequence (P51946 whole entry partner): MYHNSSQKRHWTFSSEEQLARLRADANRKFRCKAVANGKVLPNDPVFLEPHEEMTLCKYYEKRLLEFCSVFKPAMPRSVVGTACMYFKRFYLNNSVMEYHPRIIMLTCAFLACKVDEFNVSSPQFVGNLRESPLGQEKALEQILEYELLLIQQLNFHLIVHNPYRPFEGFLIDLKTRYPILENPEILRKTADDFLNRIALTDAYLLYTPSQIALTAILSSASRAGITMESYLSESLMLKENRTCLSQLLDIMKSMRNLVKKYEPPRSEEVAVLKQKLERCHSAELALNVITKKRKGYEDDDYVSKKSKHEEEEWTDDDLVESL
CDK7, sequence (P51948 whole entry partner): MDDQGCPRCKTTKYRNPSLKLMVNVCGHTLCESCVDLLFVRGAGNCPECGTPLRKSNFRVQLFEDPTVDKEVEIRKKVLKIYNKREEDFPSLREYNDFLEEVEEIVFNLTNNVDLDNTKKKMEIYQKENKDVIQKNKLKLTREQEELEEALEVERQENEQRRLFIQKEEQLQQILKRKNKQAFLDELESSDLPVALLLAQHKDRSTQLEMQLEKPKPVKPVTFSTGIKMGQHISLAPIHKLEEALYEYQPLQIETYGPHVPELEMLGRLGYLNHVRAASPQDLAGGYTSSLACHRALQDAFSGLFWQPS

| SMILES | IC50 (CDK7) | ERK1/2 pull-down (control) (ERK1/2) | MELK pull-down by streptavidin beads (ATP-biotin probe) (MELK [1]) | remaining activity at 1 µM (MLK3) | IC50 (MELK [2]; Z’-LYTE assay at [ATP]=apparent Km, read-out: Biochemical IC50 MELK) | IC50 (MELK [2]; measured by Z’LYTE biochemical assay, class symbols in Figure 2C, read-out: Potency (MELK)) | IC50 (MELK [2]; note column of Table 3, read-out: Note: MELK IC50) | IC50 (141 kinases) | reduced inhibition of the select off-target kinases compared with JW-7-25-1 [3] | % AR (% kinase activity remaining) (AMPK) | activity against MELK (MELK [4]) | difference in sensitivity between WT and MELK−/− cells [5] |
| --- | --- | --- | --- | --- | --- | --- | --- | --- | --- | --- | --- | --- |
| CN(C)C[C@H]1CC[C@H](N2C(=O)NCc3cnc4ccc(-c5cc(Cl)c(O)c(Cl)c5)cc4c32)CC1 [HTH-01-091, 9-(3,5-dichloro-4-hydroxyphenyl)-1-(trans-4-((dimethylamino)methyl)cyclohexyl)-3,4-dihydropyrimido[5,4 c]quinolin-2(1H)-one] | 1230 nM | not affected | dose-dependently decreased MELK pull-down | 54% | 10.5 nM | < 20 nM | 10.5 nM | 42 to 109 nM | 20- to 140 fold |  |  |  |
| CC(=O)c1cnc2ccc(-c3cc(Cl)c(O)c(Cl)c3)nc2c1N[C@H]1CC[C@H](CN(C)C)CC1 [OTSSP167] |  |  |  |  |  |  |  |  |  | 2% | subnanomolar | did not observe differences in cell viability |
